From PMC11246197 (Journal of medicinal chemistry, 2024) come the findings set out here.

The assay concerns SARS-CoV-2 Omicron variant BA.1. It is filed as cell-based. Particulars: read-out: EC50 against SARS-CoV-2 Omicron variant BA.1.

In general, EC50 refers to the concentration giving half of the maximal effect. Take `CC(C)OC(=O)[C@H](C)N[P@](=O)(OC[C@H]1O[C@@](C#N)(c2ccc3c(N)ncnn23)[C@H](O)[C@@H]1O)Oc1ccccc1` [IsoRDV]: the EC50 is 540 nM.
